Reference: patent US7807701B2, “Dibenzylamine compounds and pharmaceutical use thereof” (Japan Tobacco Inc., priority 2002, dated 2010)

What was measured:
[1] = biological target: T1, CETP (Homo sapiens, UniProt P11597); assay: Inhibitory effect in vitro on CETP activity in total plasma; format: biochemical; conditions: plasma of healthy subject with [3H]CE-HDL3, 37° C., 4 hr; average values
T1 construct: The donor lipoprotein obtained above was added to plasma of healthy subject; from tissue; host or cells: whole plasma of healthy subject
T1 sequence (P11597 18-493): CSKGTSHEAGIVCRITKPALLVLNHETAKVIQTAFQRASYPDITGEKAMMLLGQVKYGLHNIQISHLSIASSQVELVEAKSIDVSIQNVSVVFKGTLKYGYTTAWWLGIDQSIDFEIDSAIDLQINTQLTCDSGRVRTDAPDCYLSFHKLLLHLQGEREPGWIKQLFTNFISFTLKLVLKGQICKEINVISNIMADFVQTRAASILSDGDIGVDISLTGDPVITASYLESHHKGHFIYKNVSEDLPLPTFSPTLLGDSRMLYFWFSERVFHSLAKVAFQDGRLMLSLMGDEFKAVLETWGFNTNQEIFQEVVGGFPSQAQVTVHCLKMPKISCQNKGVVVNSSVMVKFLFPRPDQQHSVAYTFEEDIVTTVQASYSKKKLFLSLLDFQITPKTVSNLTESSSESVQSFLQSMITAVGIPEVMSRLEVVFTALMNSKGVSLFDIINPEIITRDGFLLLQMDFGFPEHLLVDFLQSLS
Procedure, shortened: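 Healthy-donor plasma spiked with [3H]cholesteryl ester-labelled HDL3 (1,000 dpm/μL) was incubated with compound (DMF vehicle) for 4 hr at 37 °C or 4 °C. HDL was separated by MgCl2/dextran sulfate precipitation and supernatant radioactivity counted. IC50 is the concentration giving 50% inhibition of CETP activity.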

[2] = system: CETP; assay: Inhibitory effect exo vivo on CETP activity in total plasma of normal hamster; conditions: blood taken 2 hr after administration, average values
Description: Potassium bromide (KBr) was added to plasma (40 mL) of healthy subject and the mixture was adjusted to have a specific density d=1.125 g/mL. The mixture was subjected to density gradient centrifugation (227,000×g, 4° C., 17 hr) and a fraction showing a specific density of d>1.125 g/mL (HDL3 fraction) was harvested. The obtained fraction was dialyzed against PBS solution [10 mmol/L Na2HPO4; 10 mmol/L NaH2PO4; 0.15 mol/L NaCl; […] (pH 7.4)]. Then, tritium-labeled cholesterol (37 MBq) was dissolved in 95% ethanol, gradually added to the above-mentioned HDL3 fraction with stirring and incubated at 37° C. for 18 hr. [By this operation, tritium-labeled cholesterol was esterified by the action of lecithin acyl transferase (LCAT) present on the HDL3 surface and taken up into HDL3 as tritium-labeled cholesteryl ester ([^3H]CE)]. After incubation, KBr was added, the mixture was adjusted to have a specific density d=1.21 g/mL, subjected to density gradient centrifugation (227,000×g, 4° C., 17 hr) and a fraction of specific density […] was harvested. The obtained fraction was dialyzed against the aforementioned PBS solution to give HDL3 incorporating [^3H]CE ([^3H]CE-HDL3, specific density: 1.125<d<1.21, specific activity: 10,000 dpm/μL), which was used as a donor lipoprotein.
The compound of the present invention was suspended in 0.5% methyl cellulose solution and orally administered once to a healthy hamster with a plastic gavage needle. Blood was taken at 2 or 4 hr after the administration and CETP activity in plasma was measured according to the following method.
The donor lipoprotein obtained above was added to hamster plasma (100 μL) to prepare [^3H]CE-HDL3-containing plasma (ca. 1,000 dpm/μL). The [^3H]CE-HDL3-containing plasma was dispensed to two microtubes by 25 μL each, and one was incubated at 37° C. and the other was incubated at 4° C. for 4 hr each. After ice-cooling, TBS solution (50 μl) containing 1 mol/L magnesium chloride and 2% dextran sulfate was added to each microtube and the mixture was thoroughly stirred. After keeping at […] for 30 min, the mixture was centrifuged (10,000×g, 4° C., 20 min), and the radioactivity in the obtained supernatant (HDL fraction) was measured with a liquid scintillation counter. The radioactivity of the [^3H]CE-HDL3-containing plasma was measured with a liquid scintillation counter, and taken as the total radioactivity. The transfer rate of [^3H]CE was calculated from the following formula using the total radioactivity (Total count), radioactivity by 37° C. incubation (37° C. count) and radioactivity by 4° C. incubation (4° C. count) of the sample of each individual and taken as the CETP activity. CETP activity(transfer ratio (%))={[(4° C. count)−(37° C. count)]/(Total count)}×100
The CETP activity inhibitory ratio of each compound administration group based on the CETP activity of the solvent administration group as 100% was calculated from the following formula and expressed in %.
CETP activity inhibitory ratio (%)=100−[(CETP activity of each compound administration group)/(CETP activity of solvent administration group)×100]

Compound | IC50 [1] [nM] | CETP activity (%) 2 (hr later) ([2]; single oral dose 30 mg/kg) [%] | CETP activity (%) 2 (hr later) ([2]; single oral dose 10 mg/kg) [%]
CCN(CCCCC(=O)OC)c1cc2c(cc1CN(Cc1cc(C#N)cc(C(F)(F)F)c1)c1nnn(C)n1)CCC2.Cl [Example 36] | – | 33.3 | –
CCN(CCCCC(=O)OC)c1cc2c(cc1CN(Cc1cc(C(F)(F)F)cc(C(F)(F)F)c1)c1ccn(C)n1)CCC2.Cl [Example 37, methyl 5-[N-(6-[{N′-[3,5-bis(trifluoromethyl)benzyl]-N′-(1-methyl-1H-pyrazol-3-yl)amino]methyl}indan-5-yl)-N-ethylamino]pentanoate hydrochloride] | 800 | 45.4 | –
CCN(CCCCC(=O)O)c1cc2c(cc1CN(Cc1cc(C#N)cc(C(F)(F)F)c1)c1nnn(C)n1)CCC2.Cl [Example 39, 5-[N-(6-{[N′-(3-cyano-5-trifluoromethylbenzyl)-N′-(2-methyl-2H-tetrazol-5-yl)amino]methyl}indan-5-yl)-N-ethylamino]pentanoic acid hydrochloride] | 880 | 49.6 | –
CCN(CCCCC(=O)O)c1cc2c(cc1CN(Cc1cc(C(F)(F)F)cc(C(F)(F)F)c1)c1ccn(C)n1)CCC2.Cl [Example 41, 5-[N-(6-{[N′-[3,5-bis(trifluoromethyl)benzyl]-N′-(1-methyl-1H-pyrazol-3-yl)amino]methyl}indan-5-yl)-N-ethylamino]pentanoic acid hydrochloride] | 510 | 36.0 | –
CCN(CCCCC(=O)O)c1ccc(OC(F)(F)F)cc1CN(Cc1cc(C(F)(F)F)cc(C(F)(F)F)c1)c1nnn(C)n1.Cl [Example 89, 5-[N-(2-{[N′-[3,5-bis(trifluoromethyl)benzyl]-N′-(2-methyl-2H-tetrazol-5-yl)amino]methyl}-4-trifluoromethoxyphenyl)-N-ethylamino]pentanoic acid hydrochloride] | 690 | – | 77.7
CCN(CCCCCC(=O)O)c1cc2c(cc1CN(Cc1cc(C(F)(F)F)cc(C(F)(F)F)c1)c1nnn(C)n1)CCC2.Cl [Example 91, 6-[N-(6-{[N′-[3,5-bis(trifluoromethyl)benzyl]-N′-(2-methyl-2H-tetrazol-5-yl)amino]methyl}indan-5-yl)-N-ethylamino]hexanoic acid hydrochloride] | 560 | – | 44.7
CCN(CCC(C)(C)CC(=O)O)c1ccc(OC(F)(F)F)cc1CN(Cc1cc(C(F)(F)F)cc(C(F)(F)F)c1)c1ccn(C)n1.Cl [Example 107, 5-[N-(2-{[N′-[3,5-bis(trifluoromethyl)benzyl]-N′-(1-methyl-1H-pyrazol-3-yl)amino]methyl}-4-trifluoromethoxyphenyl)-N-ethylamino]-3,3-dimethylpentanoic acid hydrochloride] | 560 | – | 41.9

Further compounds by falling IC50 [1], results first:

IC50 [1] [nM] | Compound | CETP activity (%) 2 (hr later) ([2]; single oral dose 30 mg/kg) [%] | CETP activity (%) 2 (hr later) ([2]; single oral dose 10 mg/kg) [%]
470 | CCN(CCCCC(=O)O)c1cc2c(cc1CN(Cc1cc(C(F)(F)F)cc(C(F)(F)F)c1)c1nnn(C)n1)CCC2.Cl [Example 38, 5-[N-(6-{[N′-[3,5-bis(trifluoromethyl)benzyl]-N′-(2-methyl-2H-tetrazol-5-yl)amino]methyl}indan-5-yl)-N-ethylamino]pentanoic acid hydrochloride] | 79.4 | –
390 | CCN(CCCCC(=O)O)c1cc2c(cc1CN(Cc1cc(C(F)(F)F)cc(C(F)(F)F)c1)c1cc(C)no1)CCC2.Cl [Example 40, 5-[N-(6-{[N′-[3,5-bis(trifluoromethyl)benzyl]-N′-(3-methylisoxazol-5-yl)amino]methyl}indan-5-yl)-N-ethylamino]pentanoic acid hydrochloride] | 59.5 | –
350 | CCN(CCCCC(=O)OC)c1cc2c(cc1CN(Cc1cc(C(F)(F)F)cc(C(F)(F)F)c1)c1nnn(C)n1)CCC2.Cl [Example 35, methyl 5-[N-(6-{[N′-[3,5-bis(trifluoromethyl)benzyl]-N′-(2-methyl-2H-tetrazol-5-yl)amino]methyl}indan-5-yl)-N-ethylamino]pentanoate hydrochloride] | 37.8 | –
310 | CCN(C[C@H]1CC[C@H](C(=O)O)CC1)c1ccc(C(F)(F)F)cc1CN(Cc1cc(C(F)(F)F)cc(C(F)(F)F)c1)c1nnn(C)n1.Cl [Example 96, trans-4-{[N-(2-{[N′-[3,5-bis(trifluoromethyl)benzyl]-N′-(2-methyl-2H-tetrazol-5-yl)amino]methyl}-4-trifluoromethylphenyl)-N-ethylamino]methyl}cyclohexanecarboxylic acid hydrochloride] | – | 41.1
300 | CCN(C[C@H]1CC[C@H](C(=O)O)CC1)c1ccc(OC(F)(F)F)cc1CN(Cc1cc(C(F)(F)F)cc(C(F)(F)F)c1)c1nnn(C)n1.Cl [Example 98, trans-4-[{N-(2-{[N′-[3,5-bis(trifluoromethyl)benzyl]-N′-(2-methyl-2H-tetrazol-5-yl)amino]methyl}-4-trifluoromethoxyphenyl)-N-ethylamino]methyl}cyclohexanecarboxylic acid hydrochloride] | – | 43.3
250 | CCN(CCC(C)(C)CC(=O)O)c1ccc(OC(F)(F)F)cc1CN(Cc1cc(C(F)(F)F)cc(C(F)(F)F)c1)c1noc(C)n1.Cl [Example 108, 5-[N-(2-{[N′-[3,5-bis(trifluoromethyl)benzyl]-N′-(5-methyl-[1,2,4]oxadiazol-3-yl)amino]methyl}-4-trifluoromethoxyphenyl)-N-ethylamino]-3,3-dimethylpentanoic acid hydrochloride] | – | 53.8
190 | CCN(CCC(C)(C)CC(=O)O)c1cc2c(cc1CN(Cc1cc(C(F)(F)F)cc(C(F)(F)F)c1)c1nnn(C)n1)CCC2.Cl [Example 92, 5-[N-(6-{[N′-[3,5-bis(trifluoromethyl)benzyl]-N′-(2-methyl-2H-tetrazol-5-yl)amino]methyl}indan-5-yl)-N-ethylamino]-3,3-dimethylpentanoic acid hydrochloride] | – | 46.9
160 | CCN(C[C@H]1CC[C@H](C(=O)O)CC1)c1ccc(OC(F)(F)F)cc1CN(Cc1cc(C(F)(F)F)cc(C(F)(F)F)c1)c1noc(C)n1.Cl [Example 109, trans-4-{[N-(2-{[N′-[3,5-bis(trifluoromethyl)benzyl]-N′-(5-methyl-[1,2,4]oxadiazol-3-yl)amino]methyl}-4-trifluoromethoxyphenyl)-N-ethylamino]methyl}cyclohexanecarboxylic acid hydrochloride] | – | 42.8
